Experimental data from publication PMC12856317, “A reversible feedback mechanism regulating mitochondrial heme synthesis” (The Journal of Biological Chemistry, 2025).

Key:
Format in all cases: biochemical
[1] = target: T1, WT apoALAS2 (residues 54–587) (Homo sapiens, UniProt P22557); assay: Inhibitor competition, apoenzyme reactivation by PLP with or without hemin; conditions: for Vmax / Km: PLP varied; for Km: 95% confidence interval in brackets
T1 construct: His6-SUMO (N, cleaved yes); made in house; host or cells: Escherichia coli BL21-Codon Plus (DE3)-RIL
T1 sequence (P22557 54-587): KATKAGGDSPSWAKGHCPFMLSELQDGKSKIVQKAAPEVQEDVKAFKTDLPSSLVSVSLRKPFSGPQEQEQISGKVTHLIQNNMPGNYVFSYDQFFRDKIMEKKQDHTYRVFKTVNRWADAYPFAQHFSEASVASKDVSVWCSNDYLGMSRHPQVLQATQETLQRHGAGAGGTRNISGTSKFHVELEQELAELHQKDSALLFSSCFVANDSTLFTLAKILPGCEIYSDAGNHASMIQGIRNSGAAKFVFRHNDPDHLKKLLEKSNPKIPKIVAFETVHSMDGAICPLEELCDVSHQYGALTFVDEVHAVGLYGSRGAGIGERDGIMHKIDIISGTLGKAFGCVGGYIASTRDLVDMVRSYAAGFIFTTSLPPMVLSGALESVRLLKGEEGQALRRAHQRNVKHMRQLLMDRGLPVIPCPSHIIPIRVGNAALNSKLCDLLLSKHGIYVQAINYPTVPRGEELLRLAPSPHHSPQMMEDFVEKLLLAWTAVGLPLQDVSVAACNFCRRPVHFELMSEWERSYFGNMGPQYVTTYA
Protocol: (§1) A discontinuous colorimetric activity assay adapted from Shoolingin-Jordan et al. and Bailey et al. was used to measure the enzyme activity ([48], [74]). The reaction was initiated by adding 100 nM purified enzyme to 50 mM potassium phosphate, pH 7.0, 10 mM MgCl2, 1 mM DTT, 100 mM glycine, and 300 μM succinyl-CoA (175 μl total). The reaction was incubated at 37 °C for 15 min and terminated with 100 μl of cold 10% trichloroacetic acid. The precipitated protein was removed by centrifugation for 5 min at 13,000g, and 240 μl of the supernatant was mixed with 240 μl of 1 M sodium acetate, pH 4.6. To derivatize ALA, 20 μl of acetylacetone was added to the mixture and boiled at 100 °C for 10 min. After the sample was cooled for 20 min, 100 μl aliquots were transferred into a clear 96-well plate in triplicate. An equal volume of Ehrlich’s reagent (p-Dimethylaminobenzaldehyde, DMAB) was added to each well, and the absorbance was monitored at 553 nm using a microplate reader (Thermo Fisher Scientific). The peak absorbance value was converted to molar ALA concentration using ε553 = 60,400 M^−1 cm^−1.
For inhibitor competition experiments, the apoenzymes were preincubated with hemin or PLP (0–100 μM) for 15 min at 25 °C in the dark before initiating the reaction. Next, either PLP or hemin (0–100 μM) was titrated into the reactions to measure enzyme activation after hemin inhibition or enzyme inhibition of the PLP-treated apoenzyme, respectively. For succinyl-CoA:hemin competition analyses, the WT holoenzyme was mixed with hemin (0, 25, 50, and 100 μM), followed by the addition of increasing succinyl-CoA concentrations (0, 25, 50, 100, 250, and 500 μM). All experiments were performed with a minimum of three biological replicates, each with three technical replicates. Data were fit using nonlinear regression to generate an agonist dose-response curve (EC50) or an inhibitor dose-response curve (IC50). Lineweaver-Burk analysis was performed using the resulting kinetic parameters (Vmax and KM) in GraphPad Prism 10.

[2] = target: T2, WT holoALAS2 (residues 54–587) (Homo sapiens, UniProt P22557); assay: Colorimetric ALA release activity assay, hemin inhibition of holoenzyme; conditions: 0.1 μM–60 μM hemin titrated into holoALAS2, rate of ALA release
T2 construct: His6-SUMO (N, cleaved yes); made in house; host or cells: Escherichia coli BL21-Codon Plus (DE3)-RIL
T2 sequence (P22557 54-587): T1 sequence (P22557 54-587)
Protocol: as §1
(§2) Inhibition of enzyme activity was determined by titrating hemin (0.1 μM–60 μM) into the substrate mixture before initiating the reaction upon enzyme addition. Hemin was dissolved in 100% dimethyl sulfoxide (DMSO) (ε403 nm = 170,000 M^−1 cm^−1) and serially diluted in 100% DMSO to prepare stock solutions for each concentration. The final DMSO concentration in the reaction mixture was 2%. All experiments were performed with a minimum of three biological replicates, each with three technical replicates. Data were fitted using nonlinear regression to generate an inhibitor dose-response curve (IC50) or an agonist dose-response curve (EC50), and statistical significance was determined using a one-way ANOVA with GraphPad Prism 10.

[3] = target: T3, holoALAS2 ΔN (residues 75–587) (Homo sapiens, UniProt P22557); assay: as above
T3 construct: a truncation without HRM3 (ΔN, residues 75–587); His6-SUMO (N, cleaved yes); made in house; host or cells: Escherichia coli BL21-Codon Plus (DE3)-RIL
T3 sequence (P22557 75-587): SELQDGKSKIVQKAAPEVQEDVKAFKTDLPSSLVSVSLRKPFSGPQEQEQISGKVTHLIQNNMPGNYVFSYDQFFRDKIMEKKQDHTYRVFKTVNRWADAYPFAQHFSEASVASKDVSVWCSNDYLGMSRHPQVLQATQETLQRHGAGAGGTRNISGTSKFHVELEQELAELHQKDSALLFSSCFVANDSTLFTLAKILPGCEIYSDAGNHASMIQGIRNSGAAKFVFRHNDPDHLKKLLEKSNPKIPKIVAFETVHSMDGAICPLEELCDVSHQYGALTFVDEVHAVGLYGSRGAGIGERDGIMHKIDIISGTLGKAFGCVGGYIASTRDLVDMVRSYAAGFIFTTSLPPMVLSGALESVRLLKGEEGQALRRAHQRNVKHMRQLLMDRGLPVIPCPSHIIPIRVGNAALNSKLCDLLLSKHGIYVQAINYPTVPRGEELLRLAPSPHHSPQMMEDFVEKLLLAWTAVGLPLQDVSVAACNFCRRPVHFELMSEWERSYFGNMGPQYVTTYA
Protocol: as §1, §2

| Vmax ([1]; hemin 0 μM) | Km ([1]; hemin 0 μM) [µM] | Vmax ([1]; hemin 10 μM) | Km ([1]; hemin 10 μM) [µM] | Vmax ([1]; hemin 25 μM) | Km ([1]; hemin 25 μM) [µM] | Vmax ([1]; hemin 50 μM) | Km ([1]; hemin 50 μM) [µM] | Vmax ([1]; hemin 100 μM) | Km ([1]; hemin 100 μM) [µM] | activation constant (Ka) ([1]; WT apoALAS2, PLP titration in the absence of heme) [µM] | EC50 ([1]; WT apoALAS2, PLP titration in the presence of 50 μM hemin) [µM] | apoenzyme activity restored ([1]; WT apoenzyme preincubated with 50 μM heme, excess PLP) [%] | IC50 [2] [µM] | IC50 fold higher than WT ([3]; ΔN versus WT) [fold] | IC50 ([3]; ΔN, 0.1 μM–60 μM hemin titrated into holoenzyme) [µM] | mode of inhibition ([1]; WT apoenzyme, varied PLP, various heme concentrations up to 100-fold excess) | Compound |
| --- | --- | --- | --- | --- | --- | --- | --- | --- | --- | --- | --- | --- | --- | --- | --- | --- | --- |
| 110.84 [123.30, 100.65] nmol/min/mg | 0.86 | 91.16 [97.56, 85.54] nmol/min/mg | 3.36 | 58.17 [67.25, 51.28] nmol/min/mg | 4.78 | 45.96 [99.50, 29.88] nmol/min/mg | 11.9 | 27.29 [41.39, 20.36] nmol/min/mg | 9.82 | 0.72 ± 0.08 | 7 ± 1 | ~50 |  |  |  |  | Cc1ncc(COP(=O)(O)O)c(C=O)c1O [PLP] |
|  |  |  |  |  |  |  |  |  |  |  |  |  | 18.7 ± 0.5 | ~2 | 35.8 ± 0.4 | mixed inhibitor | ferric chloride heme [hemin] |
